Measurements published in ChEMBL document CHEMBL1201862, “PubChem BioAssay data set” (2004).
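Step 1: Grow cells in 96-well plates. Step 2: Expose to compound for 48 hours at 5 concentrations. Step 3: Interpolate endpoints linearly; if unreached, use highest concentration. Abbreviation: GI50, concentration required for 50% inhibition of growth.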 Activity calls are given as the source filed them. Cut-off read from the data, not from the text of the source: active = GI50 up to about 1.1 µM and inactive = higher.

Assays:
Test in all cases: NCI anticancer screen, dose series, 48 h
[1] = test system: KM-20L2
[2] = test system: LXFL 529
[3] = test system: DMS-273
[4] = test system: DMS-114
[5] = test system: XF498
[6] = test system: DLD-1
[7] = test system: SNB-78
[8] = test system: M19-MEL
[9] = test system: RXF 631

| Compound | GI50 [1] | GI50 [2] | GI50 [3] | GI50 [4] | GI50 [5] | GI50 [6] | GI50 [7] | GI50 [8] | GI50 [9] |
| --- | --- | --- | --- | --- | --- | --- | --- | --- | --- |
| COc1c(Cl)c(Cl)c(OC)c2c1C(=O)C=CC2=O | 68.2 µM (inactive) | 15.8 µM (inactive) | 15.2 µM (inactive) | 16 µM (inactive) | 16.9 µM (inactive) | 14.5 µM (inactive) | 13 µM (inactive) | 18 µM (inactive) |  |
| O=C(/C=C/c1ccc(Cl)c(Cl)c1)c1ccc2ccccc2c1 | > 100 µM (inactive) | > 100 µM (inactive) | > 100 µM (inactive) | > 100 µM (inactive) |  | > 100 µM (inactive) | > 100 µM (inactive) | > 100 µM (inactive) | > 100 µM (inactive) |
| CCOc1ccc(NC(=O)/C(=C/c2ccccc2)C(C)=O)cc1 | 12.9 µM (inactive) |  | 9.14 µM (inactive) | 11.9 µM (inactive) | 14.4 µM (inactive) | 7.38 µM (inactive) | 13.4 µM (inactive) | 10.8 µM (inactive) |  |
| C[N+](C)(C)CC(=O)N/N=C(/C(=O)Nc1ccc(Br)cc1)C1C(=O)NC(=O)NC1=O | > 100 µM (inactive) | > 100 µM (inactive) | > 100 µM (inactive) | > 100 µM (inactive) |  | > 100 µM (inactive) | > 100 µM (inactive) | > 100 µM (inactive) | > 100 µM (inactive) |
| O=C(Cc1ccc(F)cc1)NC1=C(Cl)C(=O)c2ccccc2C1=O | 17.7 µM (inactive) | 2.8 µM (inactive) | 3.63 µM (inactive) | 0.514 µM (active) | 1.76 µM (inactive) | 2.18 µM (inactive) | 7.03 µM (inactive) | 3.74 µM (inactive) | 7.36 µM (inactive) |
| COc1ccc2nc(NC(=O)C(=O)CC(=O)c3ccc([N+](=O)[O-])cc3)sc2c1 | > 100 µM (inactive) | > 100 µM (inactive) | > 100 µM (inactive) | 90.6 µM (inactive) | > 100 µM (inactive) | > 100 µM (inactive) |  | > 100 µM (inactive) | > 100 µM (inactive) |
| Cc1cc(C)c([O-])c(-[n+]2c(-c3ccccc3)cc(-c3ccccc3)cc2-c2ccccc2)c1 | 2.65 µM (inactive) | 2.35 µM (inactive) | 3.24 µM (inactive) | 3.05 µM (inactive) | 2.15 µM (inactive) | 5.19 µM (inactive) | 6.24 µM (inactive) | 3.88 µM (inactive) | 10.2 µM (inactive) |
| C[N+](C)(C)CCc1ccccc1 | > 100 µM (inactive) | > 100 µM (inactive) | > 100 µM (inactive) | > 100 µM (inactive) | > 100 µM (inactive) | > 100 µM (inactive) | > 100 µM (inactive) | > 100 µM (inactive) | > 100 µM (inactive) |
| COc1cc2c(cc1C)[n+]([O-])c(C)c(C(=O)C/C(=N/NC(=O)C[N+](C)(C)C)C(=O)Nc1cccc(Cl)c1C)[n+]2[O-] | > 100 µM (inactive) | > 100 µM (inactive) | > 100 µM (inactive) | > 100 µM (inactive) | > 100 µM (inactive) | > 100 µM (inactive) | > 100 µM (inactive) |  | > 100 µM (inactive) |
| Cc1ccc(C(=O)O/N=C2/CCCC/C2=C\c2ccccc2)cc1 | 83.9 µM (inactive) | 16.9 µM (inactive) | 27.7 µM (inactive) |  | 39.4 µM (inactive) | 78.5 µM (inactive) | 15.6 µM (inactive) | 67.9 µM (inactive) |  |
| Cc1cc(C)c(-n2c(-c3ccccc3)cs/c2=N\N=C2C=C(C(C)(C)C)C(=O)C(C(C)(C)C)=C2)c(C)c1 | > 100 µM (inactive) | 75.5 µM (inactive) | > 100 µM (inactive) | 47.4 µM (inactive) | > 100 µM (inactive) | > 100 µM (inactive) | > 100 µM (inactive) | > 100 µM (inactive) |  |
| CN(C)/N=N/c1ccccc1 | 42.3 µM (inactive) | > 100 µM (inactive) | > 100 µM (inactive) | 31.6 µM (inactive) | > 100 µM (inactive) | > 100 µM (inactive) |  | 43.4 µM (inactive) |  |
| CC(C)C(=O)/C=C/c1ccc(Cl)c(Cl)c1 | 19.2 µM (inactive) | 18.7 µM (inactive) |  | 19.2 µM (inactive) | 12.5 µM (inactive) | 14.6 µM (inactive) | 34.8 µM (inactive) | 17.7 µM (inactive) |  |
| C(=C\c1c2oc(-c3ccccc3)cc(-c3ccccc3)c-2c2ccccc12)/C=C1\c2ccccc2-c2c(-c3ccccc3)cc(-c3ccccc3)[o+]c21.[O-][Cl+3]([O-])([O-])[O-] | > 100 µM (inactive) | > 100 µM (inactive) | > 100 µM (inactive) | > 100 µM (inactive) | > 100 µM (inactive) | > 100 µM (inactive) | > 100 µM (inactive) | > 100 µM (inactive) |  |
| CN(C)C(=S)SN(C)C(=O)Nc1ccccc1 | > 49.2 µM (inactive) | 0.391 µM (active) | 18.2 µM (inactive) | 2.4 µM (inactive) |  | 31.1 µM (inactive) | 39.9 µM (inactive) | 2.21 µM (inactive) | > 51.9 µM (inactive) |
